Here are results for 1 molecule from patent US6887997B2, “9H-imidazo[1,2-a]purin-9-one compounds” (Yung Shin Pharmaceutical Ind. Co., Ltd., priority 2001, dated 2005).

A word on the melting point: it is the temperature, or range, at which the solid turns liquid. `O=c1c2ncn(COCCO)c2nc2[nH]c(-c3ccc(Cl)s3)cn12` [compound 2, 3-(2-Hydroxy-ethoxymethyl)-6-(5-chloro-thiophen-2-yl)-3,5-dihydro-1,3,4,5,7a-pentaaza-s-indacen-8-one] yielded a melting point of 226 to 228 °C.
